Results reported in US20060264419A1 (priority 2003, published 2006).

Target: 5-HT2A receptors (Rattus norvegicus, UniProt P14842)
Experiment: in-vitro affinity to 5-HT2A receptors, displacement of [3H]ketanserine (Example A1)
Assay type: binding
Details: target not given; description names affinity to 5-HT2A receptors; read-out: IC50
Description: The 5-HT2A receptors are exposed both to [^3H]ketanserine (a substance which is known for its affinity to the receptor) and also to the test compound. The decrease in the affinity of [^3H]ketanserine to the receptor is an indication of the affinity of the test substance to the 5-HT2A receptor.

Sequence of 5-HT2A receptors (P14842 whole entry): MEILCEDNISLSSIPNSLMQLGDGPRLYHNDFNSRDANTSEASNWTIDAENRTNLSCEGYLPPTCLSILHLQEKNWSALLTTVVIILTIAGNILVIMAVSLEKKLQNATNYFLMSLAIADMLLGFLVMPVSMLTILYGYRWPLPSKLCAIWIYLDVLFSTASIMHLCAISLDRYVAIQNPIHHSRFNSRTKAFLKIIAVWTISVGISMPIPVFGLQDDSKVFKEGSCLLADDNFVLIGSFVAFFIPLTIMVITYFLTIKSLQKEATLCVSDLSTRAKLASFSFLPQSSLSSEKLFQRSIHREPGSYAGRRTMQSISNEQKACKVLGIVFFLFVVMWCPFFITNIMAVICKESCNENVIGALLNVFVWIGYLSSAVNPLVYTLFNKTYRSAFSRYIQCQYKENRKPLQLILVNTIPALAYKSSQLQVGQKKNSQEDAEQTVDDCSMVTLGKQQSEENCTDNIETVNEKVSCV

Q: For `CN1CCN(Cc2cnn(-c3ccc(-c4ccccc4F)cc3)c2-c2ccccc2F)CC1` [(63), 1-[1-(2′-Fluorobiphenyl-4-yl)-5-(2-fluorophenyl)-1H-pyrazol-4-ylmethyl]-4-methylpiperazine], which IC50 is on record?
A: 93 nM

Q: For `CN1CCN(Cc2cnn(-c3ccc(-c4ccc(F)cc4)cc3)c2-c2ccccc2F)CC1` [(64), 1-[1-(4′-Fluorobiphenyl-4-yl)-5-(2-fluorophenyl)-1H-pyrazol-4-ylmethyl]-4-methylpiperazine], which IC50 is on record?
A: 7.8 nM

Q: With `CN1CCN(Cc2cnn(-c3ccc(-c4cc(F)ccc4F)cc3)c2-c2ccccc2F)CC1` [(65), 1-[1-(2′,5′-Difluorobiphenyl-4-yl)-5-(2-fluorophenyl)-1H-pyrazol-4-ylmethyl]-4-methylpiperazine] as the compound, how does the IC50 read?
A: 55 nM

Q: With `CN1CCN(Cc2cnn(-c3ccc(-c4ccsc4)cc3)c2-c2ccccc2F)CC1` [(66), 1-[5-(2-Fluorophenyl)-1-(4-thiophen-3-ylphenyl)-1H-pyrazol-4-ylmethyl]-4-methylpiperazine] as the compound, how does the IC50 read?
A: 14 nM

Q: `CN1CCN(Cc2cnn(-c3ccc(-c4ccccc4)cc3)c2C(F)(F)F)CC1` [(67)] was tested. Which IC50 did it give?
A: 260 nM

Q: Which IC50 does the source give for `CN1CCN(Cc2cnn(-c3ccc(-c4cc(F)ccc4F)cc3)c2-c2ccccc2)CC1` [(68), 1-[1-(2′,5′-Difluorobiphenyl-4-yl)-5-phenyl-1H-pyrazol-4-ylmethyl]-4-methylpiperazine] here?
A: 110 nM

Q: For `CN1CCN(Cc2cnn(-c3ccc(-c4cc(F)ccc4F)cc3)c2-c2ccco2)CC1` [(69), 1-[1-(2′,5′-Difluorobiphenyl-4-yl)-5-furan-2-yl-1H-pyrazol-4-ylmethyl]-4-methylpiperazine], which IC50 is on record?
A: 36 nM

Q: With `CN1CCN(Cc2cnn(-c3ccc(-c4ccsc4)cc3)c2-c2ccco2)CC1` [(70), 1-[5-Furan-2-yl-1-(4-thiophen-3-ylphenyl)-1H-pyrazol-4-ylmethyl]-4-methylpiperazine] as the compound, how does the IC50 read?
A: 4.5 nM

Q: How did the IC50 turn out when `COc1ccccc1-c1c(CN2CCN(C)CC2)cnn1-c1ccc(-c2cc(F)ccc2F)cc1` [(71), 1-[1-(2′,5′-Difluorobiphenyl-4-yl)-5-(2-methoxyphenyl)-1H-pyrazol-4-ylmethyl]-4-methylpiperazine] was run?
A: 77 nM

Q: With `CCOC(=O)N1CCC(NCc2cnn(-c3ccc(-c4ccccc4)cc3)c2-c2ccccc2F)CC1` [(72), Ethyl 4-{[1-biphenyl-4-yl-5-(2-fluorophenyl)-1H-pyrazol-4-ylmethyl]amino}piperidine-1-carboxylate] as the compound, how does the IC50 read?
A: 580 nM

Q: Which IC50 does the source give for `CCOC(=O)CN1CCN(Cc2cnn(-c3ccc(-c4ccccc4)cc3)c2-c2ccccc2F)CC1` [(73), Ethyl {4-[1-biphenyl-4-yl-5-(2-fluorophenyl)-1H-pyrazol-4-ylmethyl]piperazin-1-yl}acetate] here?
A: 690 nM

Q: `Fc1ccccc1-c1c(CNC2CCNCC2)cnn1-c1ccc(-c2ccccc2)cc1` [(74), [1-Biphenyl-4-yl-5-(2-fluorophenyl)-1H-pyrazol-4-ylmethyl]-piperidin-4-ylamine] was tested. Which IC50 did it give?
A: 470 nM

Q: For `NCCNCc1cnn(-c2ccc(-c3ccccc3)cc2)c1-c1ccccc1F` [(76), N^1-[1-Biphenyl-4-yl-5-(2-fluorophenyl)-1H-pyrazol-4-ylmethyl]-ethane-1,2-diamine], which IC50 is on record?
A: 6.5 nM

Q: How did the IC50 turn out when `OCCNCc1cnn(-c2ccc(-c3ccccc3)cc2)c1-c1ccccc1F` [(77), 2-{[1-Biphenyl-4-yl-5-(2-fluorophenyl)-1H-pyrazol-4-ylmethyl]-amino}ethanol] was run?
A: 5.2 nM

Q: With `COCCNCc1cnn(-c2ccc(-c3ccccc3)cc2)c1-c1ccccc1F` [(78), [1-Biphenyl-4-yl-5-(2-fluorophenyl)-1H-pyrazol-4-ylmethyl]-(2-methoxyethyl)amine] as the compound, how does the IC50 read?
A: 16 nM

Q: `OCCN1CCN(Cc2cnn(-c3ccc(-c4ccccc4)cc3)c2-c2ccccc2F)CC1` [(79), 2-{4-[1-Biphenyl-4-yl-5-(2-fluorophenyl)-1H-pyrazol-4-ylmethyl]piperazin-1-yl}ethanol] was tested. Which IC50 did it give?
A: 280 nM

Q: `CCC1(O)CCN(Cc2cnn(-c3ccc(-c4ccccc4)cc3)c2-c2ccccc2F)CC1` [(80), 1-[1-Biphenyl-4-yl-5-(2-fluorophenyl)-1H-pyrazol-4-ylmethyl]-4-ethylpiperidin-4-ol] was tested. Which IC50 did it give?
A: 280 nM

Q: `OC1CCN(Cc2cnn(-c3ccc(-c4ccccc4)cc3)c2-c2ccccc2F)CC1` [(81), 1-[1-Biphenyl-4-yl-5-(2-fluorophenyl)-1H-pyrazol-4-ylmethyl]-piperidin-4-ol] was tested. Which IC50 did it give?
A: 430 nM

Q: Which IC50 does the source give for `Fc1ccccc1-c1c(CN2CC3CC2CO3)cnn1-c1ccc(-c2ccccc2)cc1` (stereo not drawn) [(82), 5-[1-Biphenyl-4-yl-5-(2-fluorophenyl)-1H-pyrazol-4-ylmethyl]-2-oxa-5-azabicyclo[2.2.1]heptane] here?
A: 160 nM

Q: How did the IC50 turn out when `OC1CC2CCC(C1)N2Cc1cnn(-c2ccc(-c3ccccc3)cc2)c1-c1ccccc1F` (stereo not drawn) [(83), 8-[1-Biphenyl-4-yl-5-(2-fluorophenyl)-1H-pyrazol-4-ylmethyl]-8-azabicyclo[3.2.1]octan-3-ol] was run?
A: 1100 nM

Q: How did the IC50 turn out when `CC(C)(C)OC(=O)N1CCN(Cc2cnn(-c3ccc(C(F)(F)F)cc3)c2-c2ccccc2F)CC1` [(84), tert-Butyl 4-[5-(2-fluorophenyl)-1-(4-trifluoromethyl-phenyl)-1H-pyrazol-4-ylmethyl]piperazine-1-carboxylate] was run?
A: 8 nM

Q: How did the IC50 turn out when `NC(=O)C1CCN(Cc2cnn(-c3ccc(-c4ccccc4)cc3)c2-c2ccccc2F)CC1` [(85), 1-[1-Biphenyl-4-yl-5-(2-fluorophenyl)-1H-pyrazol-4-ylmethyl]-piperidine-4-carboxamide] was run?
A: 870 nM

Q: How did the IC50 turn out when `Fc1ccccc1-c1c(CN2CCNCC2)cnn1-c1ccc(C(F)(F)F)cc1` [(86), 1-[5-(2-Fluorophenyl)-1-(4-trifluoromethylphenyl)-1H-pyrazol-4-ylmethyl]piperazine] was run?
A: 43 nM

Q: For `CN1CCN(Cc2cnn(-c3ccc(C(F)(F)F)cc3)c2-c2ccccc2F)CC1` [(87), 1-[5-(2-Fluorophenyl)-1-(4-trifluoromethylphenyl)-1H-pyrazol-4-ylmethyl]-4-methylpiperazine], which IC50 is on record?
A: 160 nM

Q: `CCN1CCCC1CNCc1cnn(-c2ccc(-c3ccccc3)cc2)c1-c1ccccc1F` (stereo not drawn) [(88), [1-Biphenyl-4-yl-5-(2-fluorophenyl)-1H-pyrazol-4-ylmethyl]-(1-ethylpyrrolidin-2-ylmethyl)amine] was tested. Which IC50 did it give?
A: 20 nM

Q: `Fc1ccccc1-c1c(CNCc2cccnc2)cnn1-c1ccc(-c2ccccc2)cc1` [(89), [1-Biphenyl-4-yl-5-(2-fluorophenyl)-1H-pyrazol-4-ylmethyl]-pyridin-3-ylmethylamine] was tested. Which IC50 did it give?
A: 180 nM

Q: For `CCN1CCN(Cc2cnn(-c3ccc(-c4ccccc4)cc3)c2-c2ccccc2F)CC1` [(90), 1-[1-Biphenyl-4-yl-5-(2-fluorophenyl)-1H-pyrazol-4-ylmethyl]-4-ethylpiperazine], which IC50 is on record?
A: 28 nM

Q: For `CN(CCO)Cc1cnn(-c2ccc(-c3ccccc3)cc2)c1-c1ccccc1F` [(92), 2-{[1-Biphenyl-4-yl-5-(2-fluorophenyl)-1H-pyrazol-4-ylmethyl]-methylamino}ethanol], which IC50 is on record?
A: 16 nM

Q: How did the IC50 turn out when `CN1CCCN(Cc2cnn(-c3ccc(-c4ccccc4)cc3)c2-c2ccccc2F)CC1` [(93), 1-[1-Biphenyl-4-yl-5-(2-fluorophenyl)-1H-pyrazol-4-ylmethyl]-4-methyl-[1,4]diazepam] was run?
A: 6.4 nM

Q: Which IC50 does the source give for `O=C1NCN(c2ccccc2)C12CCN(Cc1cnn(-c3ccc(-c4ccccc4)cc3)c1-c1ccccc1F)CC2` [(94), 8-[1-Biphenyl-4-yl-5-(2-fluorophenyl)-1H-pyrazol-4-ylmethyl]-1-phenyl-1,3,8-triazaspiro[4.5]decan-4-one] here?
A: 400 nM
